Measurements: ChEMBL document CHEMBL1201862, “PubChem BioAssay data set” (2004)
Calls of active or inactive are those of the source.

Tests used:
[1] = target: T1, Corticotropin-releasing factor receptor 2/Corticotropin-releasing factor-binding protein (Homo sapiens, UniProt P24387+Q13324); assay: activators of CRF receptor 2 with binding protein – uHTS hits, confirmation (AID 602473); format: functional; conditions: read-out: EC50_Mean
T1 sequence (Q13324 whole entry): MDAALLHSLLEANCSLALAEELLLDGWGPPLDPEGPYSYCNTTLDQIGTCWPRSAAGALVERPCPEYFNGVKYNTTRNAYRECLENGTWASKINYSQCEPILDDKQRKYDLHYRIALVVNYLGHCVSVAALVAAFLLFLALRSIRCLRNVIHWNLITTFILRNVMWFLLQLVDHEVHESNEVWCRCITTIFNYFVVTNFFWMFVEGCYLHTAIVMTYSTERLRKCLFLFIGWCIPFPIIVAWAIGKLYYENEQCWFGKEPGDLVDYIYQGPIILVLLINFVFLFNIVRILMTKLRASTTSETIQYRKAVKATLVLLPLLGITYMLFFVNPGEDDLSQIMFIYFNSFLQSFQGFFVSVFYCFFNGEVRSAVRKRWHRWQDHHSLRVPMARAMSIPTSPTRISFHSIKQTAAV
T1 sequence (P24387 whole entry): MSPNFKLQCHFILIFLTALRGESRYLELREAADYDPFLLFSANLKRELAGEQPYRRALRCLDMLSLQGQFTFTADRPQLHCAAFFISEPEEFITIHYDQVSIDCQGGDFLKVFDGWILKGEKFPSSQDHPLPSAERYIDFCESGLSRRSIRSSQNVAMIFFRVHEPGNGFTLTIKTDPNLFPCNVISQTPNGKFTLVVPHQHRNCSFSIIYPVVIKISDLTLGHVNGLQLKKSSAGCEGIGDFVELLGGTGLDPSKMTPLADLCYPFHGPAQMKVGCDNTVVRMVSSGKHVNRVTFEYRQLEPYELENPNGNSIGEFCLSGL

[2] = target: T2, Short transient receptor potential channel 4 (Mus musculus, UniProt Q9QUQ5); assay: calcium entry via TRPC4 opening agents – cell-based, HEK293 TRPC4/mu-opioid, Fluo-4 calcium, dose response (AID 434937); format: functional
T2 sequence (Q9QUQ5 whole entry): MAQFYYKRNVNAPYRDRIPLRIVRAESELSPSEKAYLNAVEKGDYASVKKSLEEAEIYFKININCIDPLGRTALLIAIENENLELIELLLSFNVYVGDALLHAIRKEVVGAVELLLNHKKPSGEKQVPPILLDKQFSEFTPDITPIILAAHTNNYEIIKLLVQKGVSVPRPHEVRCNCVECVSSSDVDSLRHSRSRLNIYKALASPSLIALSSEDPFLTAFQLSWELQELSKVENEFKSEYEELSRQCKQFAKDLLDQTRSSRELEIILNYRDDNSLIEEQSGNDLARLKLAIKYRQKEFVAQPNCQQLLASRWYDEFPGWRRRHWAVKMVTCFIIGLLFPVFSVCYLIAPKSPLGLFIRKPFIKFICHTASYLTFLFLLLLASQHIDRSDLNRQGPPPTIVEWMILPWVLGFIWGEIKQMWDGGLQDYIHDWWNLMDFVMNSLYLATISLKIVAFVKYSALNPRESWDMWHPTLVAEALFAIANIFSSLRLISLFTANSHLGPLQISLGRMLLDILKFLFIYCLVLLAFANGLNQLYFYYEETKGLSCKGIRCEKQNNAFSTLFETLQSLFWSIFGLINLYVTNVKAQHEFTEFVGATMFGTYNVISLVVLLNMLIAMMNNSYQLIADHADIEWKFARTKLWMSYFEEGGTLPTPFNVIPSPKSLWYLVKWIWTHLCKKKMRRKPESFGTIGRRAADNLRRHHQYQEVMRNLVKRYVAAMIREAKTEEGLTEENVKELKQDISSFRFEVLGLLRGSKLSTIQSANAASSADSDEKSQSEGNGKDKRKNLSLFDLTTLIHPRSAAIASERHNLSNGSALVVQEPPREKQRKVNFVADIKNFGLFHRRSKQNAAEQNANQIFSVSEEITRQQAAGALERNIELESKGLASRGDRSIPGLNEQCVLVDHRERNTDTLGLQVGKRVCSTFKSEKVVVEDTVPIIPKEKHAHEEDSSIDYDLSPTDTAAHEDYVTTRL

[3] = target: T3, Ubiquitin-conjugating enzyme E2 N (Homo sapiens, UniProt P61088); format: functional;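 note: Dose-response confirmation in a TR-FRET assay detecting UBC13-driven polyubiquitin chain formation, inhibition measured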
T3 sequence (P61088 whole entry): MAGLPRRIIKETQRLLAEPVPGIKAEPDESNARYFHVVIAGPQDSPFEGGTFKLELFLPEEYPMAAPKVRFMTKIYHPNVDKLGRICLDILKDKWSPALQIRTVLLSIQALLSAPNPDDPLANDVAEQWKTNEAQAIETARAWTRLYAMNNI

[4] = Trypanosoma cruzi growth suppression in host cells – NIH3T3 host cells, beta-gal luminescence, confirmation (AID 2044); format: functional, cell-based;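 note: intracellular parasites grown in NIH/3T3 mouse fibroblasts as host cells; luminescent beta-galactosidase reporter signal from transgenic T. cruzi replicating inside host cells; inhibitors lower the luminescence signal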
[5] = target: T4, RNA-binding protein pos-1 (Caenorhabditis elegans, UniProt G5EF15); assay: disruptors of C. elegans POS-1 RNA interaction – biochemical, fluorescence polarization, dose response (AID 1964);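 note: purified POS-1 fused to maltose binding protein made in E. coli; potency of compounds blocking POS-1 binding to fluorescent RNA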
T4 sequence (G5EF15 whole entry): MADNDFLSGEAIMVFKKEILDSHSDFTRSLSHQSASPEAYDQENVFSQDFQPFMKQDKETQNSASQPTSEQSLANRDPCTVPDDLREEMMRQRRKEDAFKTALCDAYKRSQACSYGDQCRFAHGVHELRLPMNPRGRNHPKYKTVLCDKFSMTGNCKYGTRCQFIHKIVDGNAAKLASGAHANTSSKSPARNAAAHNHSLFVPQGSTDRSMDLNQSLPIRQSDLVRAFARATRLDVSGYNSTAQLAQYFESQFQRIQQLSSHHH

[6] = NIH3T3 cell viability loss – ATP luminescence, mouse fibroblasts, counter-screen, dose response (AID 2010); format: functional, cell-based;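 note: cells exposed to compound for about 90 hours before reading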
[7] = target: T5, Zinc finger protein mex-5 (Caenorhabditis elegans, UniProt Q9XUB2); assay: potency of MEX-5 RNA-binding blockers – biochemical, C. elegans, fluorescence polarization, dose response (AID 1960)
T5 sequence (Q9XUB2 whole entry): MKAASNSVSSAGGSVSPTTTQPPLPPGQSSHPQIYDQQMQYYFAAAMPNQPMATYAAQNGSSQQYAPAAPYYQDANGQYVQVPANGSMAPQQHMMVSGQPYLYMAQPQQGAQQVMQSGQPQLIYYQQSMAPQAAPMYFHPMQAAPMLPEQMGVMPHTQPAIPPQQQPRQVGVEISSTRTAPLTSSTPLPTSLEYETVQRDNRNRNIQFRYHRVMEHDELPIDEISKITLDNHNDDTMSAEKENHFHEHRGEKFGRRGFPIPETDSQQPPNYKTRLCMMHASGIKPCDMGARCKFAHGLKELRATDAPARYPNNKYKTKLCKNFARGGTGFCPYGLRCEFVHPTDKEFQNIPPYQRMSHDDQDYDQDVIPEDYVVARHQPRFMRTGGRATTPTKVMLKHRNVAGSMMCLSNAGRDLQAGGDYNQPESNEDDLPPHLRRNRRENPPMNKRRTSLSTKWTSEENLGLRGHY

[8] = target: T6, Microphthalmia-associated transcription factor (Homo sapiens, UniProt O75030); assay: reducers of TRPM1 reporter luminescence, concentration series – cell-based, SK-MEL-5, cherry-picked, set 3, MITF inhibitor project, dose response (AID 493073); format: functional;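 note: SK-MEL-5 melanoma cells with luciferase driven by the MITF target TRPM1 promoter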
T6 sequence (O75030 whole entry): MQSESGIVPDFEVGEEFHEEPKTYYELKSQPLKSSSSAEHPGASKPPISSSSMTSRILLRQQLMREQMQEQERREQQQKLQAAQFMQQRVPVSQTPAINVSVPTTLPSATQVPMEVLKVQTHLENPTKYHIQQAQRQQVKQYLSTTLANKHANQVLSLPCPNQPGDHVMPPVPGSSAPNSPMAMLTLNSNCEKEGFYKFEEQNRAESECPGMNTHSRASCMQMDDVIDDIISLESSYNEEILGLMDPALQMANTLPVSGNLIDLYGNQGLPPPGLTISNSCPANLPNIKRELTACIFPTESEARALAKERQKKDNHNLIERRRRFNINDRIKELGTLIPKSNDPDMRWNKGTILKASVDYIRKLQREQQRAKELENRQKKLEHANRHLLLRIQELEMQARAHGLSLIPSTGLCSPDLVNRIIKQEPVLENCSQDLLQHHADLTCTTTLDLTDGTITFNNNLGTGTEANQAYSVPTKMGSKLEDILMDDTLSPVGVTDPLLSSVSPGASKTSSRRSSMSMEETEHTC

[9] = Luminescence Cell-Based Dose Retest to Confirm Inhibitors of Cancer Stem Cells. [Related pubchem assays (depositor defined):AID2717, AID2721]; format: functional; conditions: Homo sapiens
[10] = viability of HCT116 lacking mutant beta-catenin – cell-based, human colon tumor, dose response (AID 1045); format: functional;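 note: HCT116 colon tumor cells with beta catenin knocked out; cells exposed to compound for 60 hours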
[11] = viability of PTEN-deleted HCT116 cells – cell-based, HCT116 PTEN knockout, dose response (AID 1047); format: functional;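 note: HCT116 colon tumor cells with PTEN knocked out; cells exposed to compound for 60 hours before readout; potency for loss of cell viability measured by luminescence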
[12] = Luminescence Cell-Based Dose Response HTS to Identify Activators of Luciferase Translation or Activity in H4 […] Cells. [Related pubchem assays: 1829 (Project Summary), 1814 (Primary HTS)]; format: functional
[13] = Luminescence Cell-Based Dose Confirmation HTS to Identify Activators of 5'UTR Stem-Loop Driven Alpha-Synuclein mRNA Translation in H4 Neuroglioblastoma Cells. [Related pubchem assays: 1829 (Project Summary), 1814 (Primary HTS)]; format: functional
H4 = assay: Luminescence Cell-Based Dose Response HTS to Identify Activators of 5'UTR Stem-Loop Driven Prion Protein mRNA Translation in H4 Neuroglioblastoma Cells. [Related pubchem assays: 1829 (Project Summary), 1814 (Primary HTS)]; format: functional; conditions: Homo sapiens

Structure (SMILES): CCCCC(=O)NC(=S)NNC(=O)c1ccc(Cl)cc1Cl
- EC50 [1]: 6.56 µM (active)
- EC50 [2]: 5.31 µM (active)

Structure (SMILES): COc1cc(C(CCN2CCCC2)c2c(OC)cc(OC)c3c(-c4ccccc4)cc(=O)oc23)cc(OC)c1OC (centres undefined)
- IC50 [3]: > 20 µM (inactive)
- EC50 [4]: 1.7 µM (active)
- EC50 [5]: > 300 µM (not active)
- EC50 [6]: 49.2 µM (active)
- EC50 [7]: > 300 µM (not active)

Structure (SMILES): CN(C)C(CNC(=O)c1ccc2ccccc2n1)c1ccccc1 (centres undefined)
- EC50 [2]: 0.267 µM (active)

Structure (SMILES): N=c1n(CC(=O)c2ccc([N+](=O)[O-])cc2)c2ccccc2n1Cc1ccccc1Cl
- AC50 [8]: 4.03 µM (active)

Structure (SMILES): COc1ccc(-c2sc3ccccc3c2C#Cc2cncn2C)cc1
- IC50 [3]: > 20 µM (inactive)
- AC50 [9]: 2.69 µM (active)

Structure (SMILES): CC1(C)CC2=NC3=C(C(=O)c4ccccc43)C(c3ccc(Cl)cc3)C2=C(O)C1 (centres undefined)
- IC50 [3]: > 20 µM (inactive)
- EC50 [10]: 13.8 µM (active)
- EC50 [11]: 13.1 µM (active)

Structure (SMILES): Cc1cc(C)c(CN2CCN(Cc3ccc(C)o3)C(CCO)C2)c(-n2cccn2)c1 (centres undefined)
- EC50 [2]: 3.35 µM (active)

Structure (SMILES): CN1CCN(Cc2nc3c(c(=O)[nH]c(=O)n3C)n2Cc2c(F)cccc2Cl)CC1
- EC50 [2]: 1.68 µM (active)

Structure (SMILES): c1ccc(CN2CCC(NC3=NN=C(c4ccc5c(c4)OCCO5)CS3)CC2)cc1
- EC50 [12]: > 120 µM (not active)
- EC50 [13]: 12.5 µM (active)
- EC50 (H4): 48.5 µM (active)
